Measured values taken from ChEMBL document CHEMBL1909294, “Translating clinical findings into knowledge in drug safety evaluation--drug induced liver injury prediction system (DILIps)” (PLoS Comput Biol, 2011).

Tests used:
Hepatotoxicity [1] = test system: Hepatotoxicity;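 on HepSE Combined Scores: combined hepatic side effect score as listed in the training data of the Drug Induced Liver Injury Prediction System (DILIps)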;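 on HepSE cirrhosis: cirrhosis hepatic side effect score taken from the DILIps (drug-induced liver injury prediction) training set; call rule not given here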;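 on HepSE hepatitis: Hepatitis-related hepatic side effect score taken from the training data of DILIps, a prediction system for drug-induced liver injury; call rule not given here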;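 on HepSE hepatomegaly: hepatic side effect score for hepatomegaly, taken from the training set of the DILIps drug-induced liver injury prediction system; call rule not given here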;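 on HepSE jaundice: Jaundice-related hepatic side-effect score drawn from the training data of the DILIps (drug-induced liver injury prediction system); call rule not given here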; on HepSE liver disease: call rule not given here;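 on HepSE liver fatty: hepatic side effect score for fatty liver, taken from the DILIps training set for predicting drug-induced liver injury; call rule not given here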
Hepatotoxicity [2] = test system: Hepatotoxicity; remark: listed apart in the source;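 on HepSE Combined Scores: combined hepatic side effect score as listed in the training data of the Drug Induced Liver Injury Prediction System (DILIps)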;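 on HepSE cirrhosis: cirrhosis hepatic side effect score taken from the DILIps (drug-induced liver injury prediction) training set; call rule not given here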;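 on HepSE hepatitis: Hepatitis-related hepatic side effect score taken from the training data of DILIps, a prediction system for drug-induced liver injury; call rule not given here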;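 on HepSE hepatomegaly: hepatic side effect score for hepatomegaly, taken from the training set of the DILIps drug-induced liver injury prediction system; call rule not given here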;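 on HepSE jaundice: Jaundice-related hepatic side-effect score drawn from the training data of the DILIps (drug-induced liver injury prediction system); call rule not given here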; on HepSE liver disease: call rule not given here;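 on HepSE liver fatty: hepatic side effect score for fatty liver, taken from the DILIps training set for predicting drug-induced liver injury; call rule not given here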
Hepatotoxicity [3] = test system: Hepatotoxicity; remark: listed apart in the source;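 on HepSE cirrhosis: cirrhosis hepatic side effect score taken from the DILIps (drug-induced liver injury prediction) training set; call rule not given here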;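 on HepSE hepatitis: Hepatitis-related hepatic side effect score taken from the training data of DILIps, a prediction system for drug-induced liver injury; call rule not given here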;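 on HepSE hepatomegaly: hepatic side effect score for hepatomegaly, taken from the training set of the DILIps drug-induced liver injury prediction system; call rule not given here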;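 on HepSE jaundice: Jaundice-related hepatic side-effect score drawn from the training data of the DILIps (drug-induced liver injury prediction system); call rule not given here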; on HepSE liver disease: call rule not given here;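 on HepSE liver fatty: hepatic side effect score for fatty liver, taken from the DILIps training set for predicting drug-induced liver injury; call rule not given here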
Hepatotoxicity [4] = test system: Hepatotoxicity; remark: listed apart in the source;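 on HepSE cirrhosis: cirrhosis hepatic side effect score taken from the DILIps (drug-induced liver injury prediction) training set; call rule not given here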;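 on HepSE hepatitis: Hepatitis-related hepatic side effect score taken from the training data of DILIps, a prediction system for drug-induced liver injury; call rule not given here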;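 on HepSE hepatomegaly: hepatic side effect score for hepatomegaly, taken from the training set of the DILIps drug-induced liver injury prediction system; call rule not given here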;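 on HepSE jaundice: Jaundice-related hepatic side-effect score drawn from the training data of the DILIps (drug-induced liver injury prediction system); call rule not given here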; on HepSE liver disease: call rule not given here;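 on HepSE liver fatty: hepatic side effect score for fatty liver, taken from the DILIps training set for predicting drug-induced liver injury; call rule not given here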
Hepatotoxicity [5] = test system: Hepatotoxicity; remark: listed apart in the source; on HepSE liver disease: call rule not given here
Hepatotoxicity [6] = test system: Hepatotoxicity; remark: listed apart in the source; on HepSE liver disease: call rule not given here
Hepatotoxicity [7] = test system: Hepatotoxicity; remark: listed apart in the source
Hepatotoxicity [8] = test system: Hepatotoxicity; remark: listed apart in the source
Hepatotoxicity [9] = test system: Hepatotoxicity; remark: listed apart in the source
Hepatotoxicity [10] = test system: Hepatotoxicity; remark: listed apart in the source
Hepatotoxicity [11] = test system: Hepatotoxicity; remark: listed apart in the source
Hepatotoxicity [12] = test system: Hepatotoxicity; remark: listed apart in the source
Hepatotoxicity [13] = test system: Hepatotoxicity; remark: listed apart in the source
Hepatotoxicity [14] = test system: Hepatotoxicity; remark: listed apart in the source

SMILES | HepSE_cirrhosis (Hepatotoxicity [1]) | HepSE_hepatomegaly (Hepatotoxicity [2]) | HepSE_liver disease (Hepatotoxicity [3]) | HepSE_hepatitis (Hepatotoxicity [4]) | HepSE_hepatic necrosis (Hepatotoxicity [5]) | HepSE_jaundice (Hepatotoxicity [6]) | HepSE_bilirubinemia (Hepatotoxicity [7]) | HepSE_liver fatty (Hepatotoxicity [8]) | HepSE_cholelithiasis (Hepatotoxicity [9]) | HepSE_Combined Scores (Hepatotoxicity [10]) | HepSE_cholecystitis (Hepatotoxicity [11]) | HepSE_liver function tests abnormal (Hepatotoxicity [12]) | HepSE_elevated liver function tests (Hepatotoxicity [13]) | HepSE_hepatic failure (Hepatotoxicity [14]) | other results
C[C@H]1C[C@@H]2[C@H]([C@@H](O)C[C@@]3(C)[C@H]2CC[C@]3(O)C(=O)CO)[C@@]2(C)C=CC(=O)C=C12 [METHYLPREDNISOLONE] | 0 | 0 | 0 | 0 | 0 | 0 | 0 | 0 | 0 | 0 | 0 | 0 | 0 | 0 | –
C[C@H]1C[C@H]2[C@@H]3CCC4=CC(=O)C=C[C@]4(C)[C@@]3(F)[C@@H](O)C[C@]2(C)[C@@]1(O)C(=O)CCl [CLOBETASOL] | 0 | 0 | 0 | 0 | 0 | 0 | 0 | 0 | 0 | 0 | 0 | 0 | 0 | 0 | –
CC[C@@H]1C(=O)OC[C@@H]1Cc1cncn1C [PILOCARPINE] | 0 | 0 | 0 | 1 | 0 | 0 | 1 | 0 | 1 | 4 | 0 | 1 | 0 | 0 | –
FC(F)OC(F)(F)C(F)Cl (configuration not stated) | 0 | 0 | 0 | 0 | 1 | 0 | 0 | 0 | 0 | 2 | 0 | 0 | 0 | 1 | –
CN[C@@H](C)Cc1ccccc1 [METHAMPHETAMINE] | 0 | 0 | 0 | 0 | 0 | 0 | 0 | 0 | 0 | 0 | 0 | 0 | 0 | 0 | –
[Li] [LITHIUM] | 0 | 0 | 0 | 0 | 0 | 0 | 0 | 0 | 0 | 0 | 0 | 0 | 0 | 0 | –
CNCC[C@H](Oc1cccc2ccccc12)c1cccs1 [DULOXETINE] | – | – | – | – | – | – | – | – | – | – | – | – | – | – | HepSE_cirrhosis (Hepatotoxicity [1]; Liver): 0; HepSE_hepatomegaly (Hepatotoxicity [2]; Liver): 0; HepSE_liver disease (Hepatotoxicity [3]; Liver): 0; HepSE_hepatitis (Hepatotoxicity [4]; Liver): 1; HepSE_hepatic necrosis (Hepatotoxicity [5]; Liver): 0; HepSE_jaundice (Hepatotoxicity [6]; Liver): 1; HepSE_bilirubinemia (Hepatotoxicity [7]; Liver): 0; HepSE_liver fatty (Hepatotoxicity [8]; Liver): 1; HepSE_cholelithiasis (Hepatotoxicity [9]; Liver): 0; HepSE_Combined Scores (Hepatotoxicity [10]; Liver): 3; HepSE_cholecystitis (Hepatotoxicity [11]; Liver): 0; HepSE_liver function tests abnormal (Hepatotoxicity [12]; Liver): 0; HepSE_elevated liver function tests (Hepatotoxicity [13]; Liver): 0; HepSE_hepatic failure (Hepatotoxicity [14]; Liver): 0
CN(C/C=C/C#CC(C)(C)C)Cc1cccc2ccccc12 [TERBINAFINE] | 0 | 0 | 1 | 0 | 0 | 1 | 0 | 0 | 0 | 3 | 0 | 0 | 0 | 1 | –
CCCCCCCC(=O)CC[C@@H]1[C@@H](C/C=C\CCCC(=O)O)[C@@H](O)C[C@H]1O [UNOPROSTONE] | 0 | 0 | 0 | 0 | 0 | 0 | 0 | 0 | 0 | 0 | 0 | 0 | 0 | 0 | –
CCOC(=O)[C@H](CCc1ccccc1)N[C@@H](C)C(=O)N1[C@H](C(=O)O)C[C@H]2CCCC[C@@H]21 [TRANDOLAPRIL] | 0 | 0 | 0 | 1 | 0 | 0 | 0 | 0 | 0 | 2 | 0 | 1 | 0 | 0 | –
Cc1ccc(O)c([C@H](CCN(C(C)C)C(C)C)c2ccccc2)c1 [TOLTERODINE] | 0 | 0 | 0 | 0 | 0 | 0 | 0 | 0 | 0 | 0 | 0 | 0 | 0 | 0 | –
O=C(CCCN1CCC(O)(c2ccc(Cl)cc2)CC1)c1ccc(F)cc1 [HALOPERIDOL] | 0 | 0 | 0 | 0 | 0 | 1 | 0 | 0 | 0 | 1 | 0 | 0 | 0 | 0 | –
CCCCC[C@](C)(O)/C=C/[C@@H]1[C@@H](C/C=C/CCCC(=O)O)[C@@H](O)C[C@H]1O | 0 | 0 | 0 | 0 | 0 | 0 | 0 | 0 | 0 | 0 | 0 | 0 | 0 | 0 | –
